Test results as given in ChEMBL document CHEMBL2429832, “N-substituted 8-aminopentacyclo[5.4.0.0(2,6).0(3,10).0(5,9)]undecanes as σ receptor ligands with potential neuroprotective effects” (Bioorg Med Chem, 2013).

Key:
[1] = target: Beta-2 adrenergic receptor (Homo sapiens) (UniProt P07550); experiment: Inhibition of adrenergic beta2 receptor (unknown origin) at 10 uM by PDSP assay relative to control
[2] = target: Sodium-dependent dopamine transporter (Homo sapiens, UniProt Q01959); experiment: Displacement of [3H]-WIN-35,428 from human DAT expressed in HEK cell membranes at 10 uM relative to control; conditions: HEK293
Sequence of Sodium-dependent dopamine transporter (Q01959 whole entry): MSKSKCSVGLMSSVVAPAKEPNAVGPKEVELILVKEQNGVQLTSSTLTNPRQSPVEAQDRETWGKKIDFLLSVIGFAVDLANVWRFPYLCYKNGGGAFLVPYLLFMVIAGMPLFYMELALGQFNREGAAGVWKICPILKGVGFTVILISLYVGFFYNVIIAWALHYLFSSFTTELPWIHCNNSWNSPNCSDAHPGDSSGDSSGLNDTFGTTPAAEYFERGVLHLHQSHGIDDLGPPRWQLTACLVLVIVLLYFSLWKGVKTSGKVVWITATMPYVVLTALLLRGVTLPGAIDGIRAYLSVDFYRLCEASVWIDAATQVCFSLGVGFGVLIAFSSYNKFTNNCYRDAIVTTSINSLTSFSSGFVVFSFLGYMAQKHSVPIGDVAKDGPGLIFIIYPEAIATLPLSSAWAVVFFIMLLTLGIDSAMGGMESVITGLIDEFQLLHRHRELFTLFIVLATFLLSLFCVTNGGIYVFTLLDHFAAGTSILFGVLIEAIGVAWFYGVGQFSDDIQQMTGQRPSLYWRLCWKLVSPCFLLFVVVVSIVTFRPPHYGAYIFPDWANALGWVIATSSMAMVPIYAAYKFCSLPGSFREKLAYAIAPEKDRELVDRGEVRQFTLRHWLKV

[3] = target: T1, 5-hydroxytryptamine receptor 1A (Homo sapiens) (UniProt P08908); experiment: Inhibition of 5-HT1A receptor (unknown origin) at 10 uM by PDSP assay relative to control
T1 sequence (whole entry): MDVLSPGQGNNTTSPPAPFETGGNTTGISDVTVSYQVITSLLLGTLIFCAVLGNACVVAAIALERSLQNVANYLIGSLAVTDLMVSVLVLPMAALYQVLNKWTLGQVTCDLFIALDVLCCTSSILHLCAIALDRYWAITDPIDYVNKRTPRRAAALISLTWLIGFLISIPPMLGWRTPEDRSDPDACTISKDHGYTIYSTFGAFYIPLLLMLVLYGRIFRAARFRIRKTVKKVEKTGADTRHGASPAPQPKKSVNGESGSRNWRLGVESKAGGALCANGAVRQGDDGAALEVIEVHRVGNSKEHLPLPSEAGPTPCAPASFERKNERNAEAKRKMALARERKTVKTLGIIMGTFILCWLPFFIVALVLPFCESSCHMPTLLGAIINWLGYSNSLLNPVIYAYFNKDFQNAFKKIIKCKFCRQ

[4] = target: 5-hydroxytryptamine receptor 6 (Homo sapiens, UniProt P50406); experiment: Inhibition of 5-HT6 receptor (unknown origin) at 10 uM by PDSP assay relative to control
Sequence of 5-hydroxytryptamine receptor 6 (P50406 whole entry): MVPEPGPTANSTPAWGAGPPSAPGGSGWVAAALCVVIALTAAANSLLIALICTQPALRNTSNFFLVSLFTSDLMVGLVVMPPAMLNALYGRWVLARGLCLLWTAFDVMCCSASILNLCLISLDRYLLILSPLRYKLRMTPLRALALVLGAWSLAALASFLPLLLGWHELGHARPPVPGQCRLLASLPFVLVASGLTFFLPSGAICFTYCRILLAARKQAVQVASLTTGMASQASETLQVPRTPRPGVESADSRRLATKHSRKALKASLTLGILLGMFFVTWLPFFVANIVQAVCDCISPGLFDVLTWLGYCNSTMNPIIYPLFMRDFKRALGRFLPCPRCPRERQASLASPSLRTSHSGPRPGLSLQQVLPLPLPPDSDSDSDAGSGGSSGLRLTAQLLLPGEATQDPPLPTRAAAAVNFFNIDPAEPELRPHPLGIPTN

D(3) dopamine receptor = D(3) dopamine receptor (Homo sapiens, UniProt P35462); experiment: Inhibition of dopamine D3 receptor (unknown origin) at 10 uM by PDSP assay relative to control
Sequence of D(3) dopamine receptor (P35462 whole entry): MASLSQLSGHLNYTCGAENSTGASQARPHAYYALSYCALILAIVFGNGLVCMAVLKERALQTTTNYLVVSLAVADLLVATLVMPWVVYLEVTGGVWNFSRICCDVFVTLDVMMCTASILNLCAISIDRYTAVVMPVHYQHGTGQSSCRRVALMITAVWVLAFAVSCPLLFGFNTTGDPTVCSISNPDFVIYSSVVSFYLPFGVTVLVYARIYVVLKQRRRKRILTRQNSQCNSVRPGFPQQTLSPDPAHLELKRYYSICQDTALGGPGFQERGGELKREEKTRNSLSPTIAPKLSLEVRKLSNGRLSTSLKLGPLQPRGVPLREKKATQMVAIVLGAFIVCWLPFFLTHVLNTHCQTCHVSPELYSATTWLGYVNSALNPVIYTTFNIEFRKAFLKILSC

[5] = target: Sodium-dependent serotonin transporter (Homo sapiens, UniProt P31645); experiment: Displacement of [3H]-citalopram from human SERT expressed in HEK cell membranes at 10 uM relative to control; conditions: HEK293
Sequence of Sodium-dependent serotonin transporter (P31645 whole entry, looked up): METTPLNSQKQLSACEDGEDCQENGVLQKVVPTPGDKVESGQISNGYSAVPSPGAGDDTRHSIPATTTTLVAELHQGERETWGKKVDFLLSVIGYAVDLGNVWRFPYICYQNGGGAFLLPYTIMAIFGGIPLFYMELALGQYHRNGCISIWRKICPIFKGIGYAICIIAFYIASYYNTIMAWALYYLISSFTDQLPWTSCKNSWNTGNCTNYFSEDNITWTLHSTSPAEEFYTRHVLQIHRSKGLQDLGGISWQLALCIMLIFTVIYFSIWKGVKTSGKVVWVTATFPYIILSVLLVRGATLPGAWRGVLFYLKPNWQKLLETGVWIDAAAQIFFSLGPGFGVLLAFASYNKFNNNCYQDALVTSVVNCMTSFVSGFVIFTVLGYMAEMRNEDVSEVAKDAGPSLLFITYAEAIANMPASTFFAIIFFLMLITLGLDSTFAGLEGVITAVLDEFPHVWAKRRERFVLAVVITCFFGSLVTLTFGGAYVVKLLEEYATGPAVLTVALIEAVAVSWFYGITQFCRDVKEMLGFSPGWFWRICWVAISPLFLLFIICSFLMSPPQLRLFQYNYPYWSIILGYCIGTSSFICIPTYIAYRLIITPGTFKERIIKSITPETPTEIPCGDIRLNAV

[6] = target: T2, Muscarinic acetylcholine receptor M2 (Homo sapiens, UniProt P08172); experiment: Inhibition of muscarinic M2 receptor (unknown origin) by PDSP assay
T2 sequence (P08172 whole entry): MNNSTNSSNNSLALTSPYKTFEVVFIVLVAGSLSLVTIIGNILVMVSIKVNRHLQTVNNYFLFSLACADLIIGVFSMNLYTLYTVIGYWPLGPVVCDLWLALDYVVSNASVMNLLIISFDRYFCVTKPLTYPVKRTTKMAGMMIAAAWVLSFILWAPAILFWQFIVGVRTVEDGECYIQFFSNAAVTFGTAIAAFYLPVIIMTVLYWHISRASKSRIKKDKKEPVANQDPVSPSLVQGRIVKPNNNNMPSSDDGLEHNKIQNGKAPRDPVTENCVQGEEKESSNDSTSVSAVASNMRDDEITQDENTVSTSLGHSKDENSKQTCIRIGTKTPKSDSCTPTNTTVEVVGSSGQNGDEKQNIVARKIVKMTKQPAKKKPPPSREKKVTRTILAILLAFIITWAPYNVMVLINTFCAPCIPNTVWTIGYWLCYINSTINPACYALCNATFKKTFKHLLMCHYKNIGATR

[7] = target: 5-hydroxytryptamine receptor 5A (Homo sapiens, UniProt P47898); experiment: Inhibition of 5-HT5A receptor (unknown origin) at 10 uM by PDSP assay relative to control
Sequence of 5-hydroxytryptamine receptor 5A (P47898 whole entry): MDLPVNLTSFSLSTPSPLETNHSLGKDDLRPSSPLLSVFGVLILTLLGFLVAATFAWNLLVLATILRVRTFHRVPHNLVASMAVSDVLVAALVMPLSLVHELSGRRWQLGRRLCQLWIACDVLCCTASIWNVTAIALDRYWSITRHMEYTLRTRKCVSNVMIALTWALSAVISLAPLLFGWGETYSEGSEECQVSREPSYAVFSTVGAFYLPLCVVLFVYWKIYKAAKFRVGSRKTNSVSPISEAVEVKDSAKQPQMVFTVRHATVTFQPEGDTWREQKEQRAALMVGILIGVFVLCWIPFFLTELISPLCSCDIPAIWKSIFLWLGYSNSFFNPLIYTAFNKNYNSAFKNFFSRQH

[8] = target: T3, 5-hydroxytryptamine receptor 2C (Homo sapiens) (UniProt P28335); experiment: Inhibition of 5-HT2C receptor (unknown origin) at 10 uM by PDSP assay relative to control
T3 sequence (whole entry): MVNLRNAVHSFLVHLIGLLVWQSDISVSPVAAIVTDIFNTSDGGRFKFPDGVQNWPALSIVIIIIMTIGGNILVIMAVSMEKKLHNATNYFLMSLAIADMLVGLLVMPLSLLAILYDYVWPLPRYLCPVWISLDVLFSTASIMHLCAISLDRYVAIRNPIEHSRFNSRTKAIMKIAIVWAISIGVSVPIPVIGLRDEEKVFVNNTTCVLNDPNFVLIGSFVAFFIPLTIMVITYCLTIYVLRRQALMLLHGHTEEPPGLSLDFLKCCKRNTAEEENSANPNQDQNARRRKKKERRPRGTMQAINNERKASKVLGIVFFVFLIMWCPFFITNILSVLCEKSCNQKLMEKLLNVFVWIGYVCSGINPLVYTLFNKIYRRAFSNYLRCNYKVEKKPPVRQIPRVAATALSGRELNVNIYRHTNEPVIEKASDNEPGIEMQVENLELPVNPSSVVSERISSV

[9] = target: T4, Alpha-2A adrenergic receptor (Homo sapiens) (UniProt P08913); experiment: Inhibition of adrenergic alpha2A receptor (unknown origin) at 10 uM by PDSP assay relative to control
T4 sequence (whole entry): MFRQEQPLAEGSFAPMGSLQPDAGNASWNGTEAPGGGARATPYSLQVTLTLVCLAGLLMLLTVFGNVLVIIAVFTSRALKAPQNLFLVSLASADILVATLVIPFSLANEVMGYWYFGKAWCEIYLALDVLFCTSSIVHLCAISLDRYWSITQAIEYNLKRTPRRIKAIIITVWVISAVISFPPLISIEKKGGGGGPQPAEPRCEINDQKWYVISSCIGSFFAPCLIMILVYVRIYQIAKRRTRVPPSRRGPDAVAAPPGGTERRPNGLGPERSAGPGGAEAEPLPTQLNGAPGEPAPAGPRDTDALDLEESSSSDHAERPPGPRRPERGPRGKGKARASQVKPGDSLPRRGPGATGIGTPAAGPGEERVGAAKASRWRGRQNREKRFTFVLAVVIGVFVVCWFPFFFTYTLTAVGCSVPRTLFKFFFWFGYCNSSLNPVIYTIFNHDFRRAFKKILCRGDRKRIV

[10] = target: T5, Muscarinic acetylcholine receptor M5 (Homo sapiens) (UniProt P08912); experiment: Inhibition of muscarinic M5 receptor (unknown origin) at 10 uM by PDSP assay relative to control
T5 sequence (whole entry): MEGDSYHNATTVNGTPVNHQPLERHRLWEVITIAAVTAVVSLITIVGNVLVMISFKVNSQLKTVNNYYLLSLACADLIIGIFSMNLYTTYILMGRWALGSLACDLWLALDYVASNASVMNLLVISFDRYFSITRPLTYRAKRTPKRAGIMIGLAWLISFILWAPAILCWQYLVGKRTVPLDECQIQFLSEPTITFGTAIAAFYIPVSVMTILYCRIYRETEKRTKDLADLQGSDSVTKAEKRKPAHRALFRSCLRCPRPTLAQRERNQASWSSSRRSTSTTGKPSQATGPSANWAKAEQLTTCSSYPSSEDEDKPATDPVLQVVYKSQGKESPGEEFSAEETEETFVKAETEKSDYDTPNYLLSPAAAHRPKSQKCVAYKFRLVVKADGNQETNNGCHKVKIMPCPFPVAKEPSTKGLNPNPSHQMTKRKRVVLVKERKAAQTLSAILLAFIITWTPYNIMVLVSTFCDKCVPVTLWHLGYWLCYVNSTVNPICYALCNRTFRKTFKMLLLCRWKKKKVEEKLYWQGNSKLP

Sequence of Beta-2 adrenergic receptor (Homo sapiens) (P07550 whole entry, looked up): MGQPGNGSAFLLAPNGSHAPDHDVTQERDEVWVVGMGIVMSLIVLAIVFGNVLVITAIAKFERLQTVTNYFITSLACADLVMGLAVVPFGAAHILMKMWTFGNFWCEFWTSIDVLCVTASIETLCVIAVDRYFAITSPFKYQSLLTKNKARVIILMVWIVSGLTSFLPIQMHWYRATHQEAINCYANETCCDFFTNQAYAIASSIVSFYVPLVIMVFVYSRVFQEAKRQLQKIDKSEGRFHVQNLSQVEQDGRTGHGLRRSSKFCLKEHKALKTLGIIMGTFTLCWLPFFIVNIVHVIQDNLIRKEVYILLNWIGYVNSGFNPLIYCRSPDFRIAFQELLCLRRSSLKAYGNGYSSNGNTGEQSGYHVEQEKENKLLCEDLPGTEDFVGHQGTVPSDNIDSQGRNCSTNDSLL

`CN(Cc1ccccc1)[C@H]1C2C3CC4C2C(=O)C2C4C3C21` (stereo partly drawn) was tested, and the inhibition [1] was under 50%, the inhibition [2] was under 50% and the inhibition [3] was under 50%. It also gave an inhibition [4] of under 50%, an inhibition (D(3) dopamine receptor) of under 50% and an inhibition [5] of under 50%. It also gave a Ki [6] of 0.474 µM, an inhibition [7] of under 50% and an inhibition [8] of under 50%. The inhibition [9] was under 50%.
Work on `CN(Cc1cccnc1)[C@H]1C2C3CC4C5C3CC2C5C41` (stereo partly drawn) yielded an inhibition [1] of under 50%, an inhibition [2] of under 50% and an inhibition [3] of under 50%. For the same compound, the inhibition [4] was under 50%, the inhibition (D(3) dopamine receptor) was under 50% and the inhibition [5] was under 50%. For the same compound, the Ki [6] was over 10 µM, the inhibition [10] was under 50% and the inhibition [7] was under 50%. The inhibition [8] was under 50% and the inhibition [9] was under 50%.
Work on `CN(Cc1cccc(F)c1)[C@H]1C2C3CC4C2C(=O)C2C4C3C21` (stereo partly drawn) yielded an inhibition [1] of under 50%, an inhibition [4] of under 50% and an inhibition (D(3) dopamine receptor) of under 50%. It also gave an inhibition [5] of under 50%, a Ki [6] of 1.73 µM and an inhibition [10] of under 50%. It also gave an inhibition [7] of under 50%, an inhibition [8] of under 50% and an inhibition [9] of under 50%.
In the case of `CN(CCc1ccccn1)[C@H]1C2C3CC4C2C(=O)C2C4C3C21` (stereo partly drawn), the inhibition [1] is reported as under 50%, the inhibition [2] is reported as under 50% and the inhibition [3] is reported as under 50%. For the same compound, the inhibition [4] was under 50%, the inhibition (D(3) dopamine receptor) was under 50% and the inhibition [5] was under 50%. For the same compound, the Ki [6] was over 10 µM, the inhibition [10] was under 50% and the inhibition [7] was under 50%. For the same compound, the inhibition [8] was under 50% and the inhibition [9] was under 50%.
In the case of `CN(Cc1cccnc1)[C@H]1C2C3CC4C2C(=O)C2C4C3C21` (stereo partly drawn), the inhibition [1] is reported as under 50%, the inhibition [2] is reported as under 50% and the inhibition [3] is reported as under 50%. For the same compound, the inhibition [4] was under 50%, the inhibition (D(3) dopamine receptor) was under 50% and the inhibition [5] was under 50%. For the same compound, the Ki [6] was 8.85 µM, the inhibition [10] was under 50% and the inhibition [7] was under 50%. The inhibition [8] was under 50% and the inhibition [9] was under 50%.
`CN(CCc1ccccn1)[C@H]1C2C3CC4C5C3CC2C5C41` (stereo partly drawn) gave an inhibition [1] of under 50%, an inhibition [2] of under 50% and an inhibition [3] of under 50%. It also gave an inhibition [4] of under 50%, an inhibition (D(3) dopamine receptor) of under 50% and an inhibition [5] of under 50%. The Ki [6] was 3.55 µM, the inhibition [10] was under 50% and the inhibition [7] was under 50%. For the same compound, the inhibition [8] was under 50% and the inhibition [9] was under 50%.
